Laboratory results: paper PMC11327210, “A first-in-human phase I trial of daily oral zelenirstat, a N-myristoyltransferase inhibitor, in patients with advanced solid tumors and relapsed/refractory B-cell lymphomas” (Investigational New Drugs, 2024)
Where two headings read alike, the source gives them in different places.

Tests used:
[1] = system: patients with advanced solid tumors and relapsed/refractory (R/R) B-cell lymphomas; experiment: Phase I dose escalation: safety, DLT, MTD/RP2D (NCI-CTCAE v5.0); type: in vivo; conditions: for Grade ≥ 3 treatment-related adverse events: Hypophosphatemia / Grade ≥ 3 treatment-related adverse events: Metabolism and nutrition disorders / Grade ≥ 3 treatment-related adverse events: Nausea / No. of pts with Gr ≥ 3 TRAEs: daily oral
From the text: A standard 3 + 3 design was used to assess for MTD and establish RP2D according to a pre-determined dose-escalation schema (Table 1). There was no intra-patient dose escalation. The MTD was defined as the dose level below the cohort in which 2 or more patients experienced a first cycle, zelenirstat attributable, dose-limiting toxicity (DLT), and the MTD required confirmation in at least 6 patients.
DLT was defined as any of the following: Grade (Gr) 4 thrombocytopenia, Gr 3 thrombocytopenia with bleeding, Gr 4 neutropenia ≥ 7 days, febrile neutropenia, clinically significant ≥ Gr 3 non-hematologic toxicity, or any significant toxicity warranting a withhold of zelenirstat. […] Toxicity was graded according to the National Cancer Institute Common Toxicity Criteria for Adverse Events (NCI-CTCAE) version 5.0.
For dose escalation, patients received daily oral zelenirstat on 28-day cycles. It was administered as 10 mg and 70 mg capsules, with instructions to take on an empty stomach each morning with 250 ml of tap water. Patients received zelenirstat until progressive disease, unacceptable toxicity, or withdrawal of consent.
Baseline imaging and hematology and blood chemistry were obtained within 4 weeks and 1 week of study entry, respectively. Baseline screening included a complete medical history, physical examination, assessment of ECOG performance status, and body weight. CT imaging was used for advanced solid tumors and B-cell NHL; PET-CT was optional for B-cell NHL. Weekly complete blood counts with white blood cell differentiation and blood chemistries were drawn for the first cycle, biweekly for cycle 2, and then prior to each 28-day cycle. Adverse events were evaluated weekly in the first cycle, biweekly for cycle 2, and before each subsequent cycle using the NCI-CTCAE version 5.0.

[2] = human, in vivo
Procedure: (§1) Peripheral blood samples were collected over six time points in the first 8 h of Cycle 1, Day 1 (C1D1), and again on C1D15. Pre-treatment Day 1 levels were obtained with every subsequent cycle.

[3] = system: cell line derived xenografts from breast carcinomas; parameters: method as in PMID 33398478; conditions: mice-bearing established human tumor xenografts; cited from earlier work
[4] = system: patient derived xenograft models of refractory DLBCL; parameters: method as in PMID 33093447; conditions: cited from earlier work
[5] = system: cell line and patient derived xenograft models of AML; parameters: method as in doi:10.1182/blood-2022-170544; conditions: cited from earlier work
human AML = system: human AML; parameters: method as in doi:10.1182/blood-2022-170544; conditions: murine tail-vein injection models of human AML; cited from earlier work
[6] = parameters: method as in Pacylex, data on file; conditions: preclinical models; ref Pacylex, data on file; cited from earlier work
off-target kinase = system: off-target kinase; parameters: method as in doi:10.1182/blood-2019-124934; conditions: cited from earlier work
[7] = parameters: method as in doi:10.1182/blood-2019-124934; conditions: multiple daily oral administration; cited from earlier work
clinical = conditions: human, in vivo; for AUC(0-t): AUC0 − 24 (h*ng/mL) (mean, SD); for Cmax: Cmax (ng/ml) (mean, SD)
Procedure: as §1

dogs = conditions: dog, in vivo; cited from earlier work
[8] = Plasma pharmacokinetics in phase I patients (UPLC-MS/MS); conditions: beyond Day 15
Procedure: as §1

[9] = oral once daily, 28-day cycles, patients

SMILES: Cc1c(NS(=O)(=O)c2c(Cl)cc(-c3ccnc(N4CCNCC4)c3)cc2Cl)c(CC(C)C)nn1C [zelenirstat]
- Grade ≥ 3 treatment-related adverse events: Hypophosphatemia ([1]; 20 mg (N = 3)): 0 n, %
- Grade ≥ 3 treatment-related adverse events: Metabolism and nutrition disorders ([1]; 20 mg (N = 3)): 0 n, %
- Grade ≥ 3 treatment-related adverse events: Nausea ([1]; 20 mg (N = 3)): 0 n, %
- No. of pts with Gr ≥ 3 TRAEs ([1]; 20 mg (N = 3)): 0 n, %
- Grade ≥ 3 treatment-related adverse events: Hypophosphatemia ([1]; 40 mg (N = 3)): 0 n, %
- Grade ≥ 3 treatment-related adverse events: Metabolism and nutrition disorders ([1]; 40 mg (N = 3)): 0 n, %
- Grade ≥ 3 treatment-related adverse events: Nausea ([1]; 40 mg (N = 3)): 0 n, %
- No. of pts with Gr ≥ 3 TRAEs ([1]; 40 mg (N = 3)): 0 n, %
- Grade ≥ 3 treatment-related adverse events: Hypophosphatemia ([1]; 70 mg (N = 3)): 0 n, %
- Grade ≥ 3 treatment-related adverse events: Metabolism and nutrition disorders ([1]; 70 mg (N = 3)): 0 n, %
- Grade ≥ 3 treatment-related adverse events: Nausea ([1]; 70 mg (N = 3)): 0 n, %
- No. of pts with Gr ≥ 3 TRAEs ([1]; 70 mg (N = 3)): 1 (33) n, %
- Grade ≥ 3 treatment-related adverse events: Hypophosphatemia ([1]; 100 mg (N = 5)): 0 n, %
- Grade ≥ 3 treatment-related adverse events: Metabolism and nutrition disorders ([1]; 100 mg (N = 5)): 0 n, %
- Grade ≥ 3 treatment-related adverse events: Nausea ([1]; 100 mg (N = 5)): 0 n, %
- No. of pts with Gr ≥ 3 TRAEs ([1]; 100 mg (N = 5)): 0 n, %
- Grade ≥ 3 treatment-related adverse events: Hypophosphatemia ([1]; 140 mg (N = 3)): 0 n, %
- Grade ≥ 3 treatment-related adverse events: Metabolism and nutrition disorders ([1]; 140 mg (N = 3)): 0 n, %
- Grade ≥ 3 treatment-related adverse events: Nausea ([1]; 140 mg (N = 3)): 0 n, %
- No. of pts with Gr ≥ 3 TRAEs ([1]; 140 mg (N = 3)): 0 n, %
- Grade ≥ 3 treatment-related adverse events: Hypophosphatemia ([1]; 210 mg (N = 7)): 0 n, %
- Grade ≥ 3 treatment-related adverse events: Metabolism and nutrition disorders ([1]; 210 mg (N = 7)): 0 n, %
- Grade ≥ 3 treatment-related adverse events: Nausea ([1]; 210 mg (N = 7)): 0 n, %
- No. of pts with Gr ≥ 3 TRAEs ([1]; 210 mg (N = 7)): 0 n, %
- Grade ≥ 3 treatment-related adverse events: Hypophosphatemia ([1]; 280 mg (N = 5)): 1 (20) n, %
- Grade ≥ 3 treatment-related adverse events: Metabolism and nutrition disorders ([1]; 280 mg (N = 5)): 1 (20) n, %
- Grade ≥ 3 treatment-related adverse events: Nausea ([1]; 280 mg (N = 5)): 1 (20) n, %
- No. of pts with Gr ≥ 3 TRAEs ([1]; 280 mg (N = 5)): 4 (80) n, %
- evaluable patients with first cycle dose-limiting gastrointestinal toxicities ([1]; 280 mg daily cohort): Three
- neuropathy ([1]; dose cohorts up to and including 210 mg): No neuropathy was reported
- Gr 2 thrombocytopenia, patients ([1]; dose cohorts up to and including 210 mg, resolved despite continuation at full dose): 12%
- maximum tolerated dose (MTD) [1, 9]: 210 mg
- recommended phase 2 dose (RP2D) [1, 9]: 210 mg
- drug-induced QT prolongation ([1]; pre- and post-dose ECG assessments, patients): no evidence of drug-induced QT prolongation
- first cycle (or any cycle) DLTs ([1]; six evaluable patients, 210 mg per day cohort): absence of first cycle (or any cycle) DLTs
- Plasma concentrations (Cmax and AUC values) in patients on PPIs compared to patients not taking PPIs [2]: tended to be lower
- Systemic exposure (Cmax and AUC values) versus dose [2]: tended to increase with increasing dose
- time to steady state (visual observation of pre-dose concentrations) [2]: 8 to 15 days
- accumulation following repeated administration ([2]; 14 day): < 2 fold
- accumulation ratio for AUC0 − 24 (ArAUC0−24) ([2]; 14 day): 1.0-1.9
- accumulation ratio for Cmax (ArCmax) ([2]; 14 day): 0.41-1.72
- accumulation ratios for both ArCmax and ArAUC0−24 ([2]; 14 days): 3-6 fold
- time to steady state ([2]; po): ≤ 15 days
- AUC0 − 24 (h*ng/mL) (mean, SD) ([2]; po, 20 mg): 2066 (387) h*ng/mL
- Cmax (ng/ml) (mean, SD) ([2]; po, 20 mg): 276 (117) ng/ml
- Tmax (h) (median, range) ([2]; po, 20 mg): 1 (0.5–2.1) h
- t1/2 (h) (mean, SD) ([2]; po, 20 mg): 7.4 (2.0) h
- AUC0 − 24 (h*ng/mL) (mean, SD) ([2]; po, 40 mg): 7060 (6711) h*ng/mL
- Cmax (ng/ml) (mean, SD) ([2]; po, 40 mg): 774 (720) ng/ml
- t1/2 (h) (mean, SD) ([2]; po, 40 mg): 9.7 (3.0) h
- AUC0 − 24 (h*ng/mL) (mean, SD) ([2]; po, 70 mg): 6613 (3526) h*ng/mL
- Cmax (ng/ml) (mean, SD) ([2]; po, 70 mg): 467 (257) ng/ml
- Tmax (h) (median, range) ([2]; po, 70 mg): 4.1 (4.0-7.9) h
- AUC0 − 24 (h*ng/mL) (mean, SD) ([2]; po, 100 mg): 18,936 (9188) h*ng/mL
- Cmax (ng/ml) (mean, SD) ([2]; po, 100 mg): 2188 (1037) ng/ml
- Tmax (h) (median, range) ([2]; po, 100 mg): 2.0 (2.0-3.8) h
- t1/2 (h) (mean, SD) ([2]; po, 100 mg): 8.0 (2.3) h
- AUC0 − 24 (h*ng/mL) (mean, SD) ([2]; po, 140 mg): 8150 (2846) h*ng/mL
- Cmax (ng/ml) (mean, SD) ([2]; po, 140 mg): 1335 (964) ng/ml
- Tmax (h) (median, range) ([2]; po, 140 mg): 2.0 (1.0–2.0) h
- t1/2 (h) (mean, SD) ([2]; po, 140 mg): 10.4 (5.5) h
- AUC0 − 24 (h*ng/mL) (mean, SD) ([2]; po, 210 mg): 27,558 (13,349) h*ng/mL
- Cmax (ng/ml) (mean, SD) ([2]; po, 210 mg): 2935 (1047) ng/ml
- Tmax (h) (median, range) ([2]; po, 210 mg): 2.0 (1.0-3.9) h
- t1/2 (h) (mean, SD) ([2]; po, 210 mg): 7.7 (3.4) h
- xenograft tumor response [3]: tumor growth inhibition
- xenograft tumor response [4]: profound tumor regression and complete remissions
- xenograft tumor response [5]: similarly profound remissions
- leukemic cell burden (human AML): reduced the leukemic cell burden
- plasma protein binding [6]: highly bound to plasma protein
- off-target kinase inhibition (off-target kinase): no relevant off-target kinase inhibition
- dose limiting toxicity in GLP non-clinical safety testing [7]: diarrhea was dose limiting
- half-life (clinical; half-life values across the dose cohorts): 7.67 to 12 h
- Tmax (clinical; maximum Tmax value in patients taking PPI): ~8 h
- half-life (clinical; mean terminal half-life across the dose cohorts): 6.7 to 9.5 h
- Tmax (clinical; median Tmax range in patients taking proton pump inhibitors (PPI)): 1 to 6 h
- AUC(0-t) (clinical; po, 20 mg): 1580 ng·h/mL
- Cmax (clinical; po, 20 mg): 359 ng/mL
- Tmax (clinical; po, 20 mg, Tmax (h) (median, range)): 2 h
- half-life (clinical; po, 20 mg, t1/2 (h) (mean, SD)): 6.7 h
- AUC(0-t) (clinical; po, 40 mg): 4820 ng·h/mL
- Cmax (clinical; po, 40 mg): 848 ng/mL
- half-life (clinical; po, 40 mg, t1/2 (h) (mean, SD)): 9.2 h
- AUC(0-t) (clinical; po, 70 mg): 5650 ng·h/mL
- Cmax (clinical; po, 70 mg): 665 ng/mL
- Tmax (clinical; po, 70 mg, Tmax (h) (median, range)): 3.9 h
- half-life (clinical; po, 70 mg, t1/2 (h) (mean, SD)): 9.5 h
- AUC(0-t) (clinical; po, 100 mg): 24700 ng·h/mL
- Cmax (clinical; po, 100 mg): 2300 ng/mL
- Tmax (clinical; po, 100 mg, Tmax (h) (median, range)): 4 h
- half-life (clinical; po, 100 mg, t1/2 (h) (mean, SD)): 12 h
- AUC(0-t) (clinical; po, 140 mg): 11900 ng·h/mL
- Cmax (clinical; po, 140 mg): 1770 ng/mL
- Tmax (clinical; po, 140 mg, Tmax (h) (median, range)): 1 h
- half-life (clinical; po, 140 mg, t1/2 (h) (mean, SD)): 7.2 h
- AUC(0-t) (clinical; po, 210 mg): 14700 ng·h/mL
- Cmax (clinical; po, 210 mg): 1770 ng/mL
- Tmax (clinical; po, 210 mg, Tmax (h) (median, range)): 3 h
- half-life (clinical; po, 210 mg, t1/2 (h) (mean, SD)): 7.8 h
- Tmax (clinical; po, median Tmax values across the dose cohorts): 1 to 4 h
- half-life (clinical; po, terminal half-lives, average): 10 h
- Tmax (clinical; po, time of peak plasma concentrations): 2 h
- toxicities in formal toxicologic evaluation (dogs): acute gastrointestinal and hematologic toxicities
- accumulation over multiple cycles (pre-dose concentrations) [8]: no accumulation was apparent beyond Day 15
